41 compounds from US9169252B2 (BRISTOL-MYERS SQUIBB COMPANY, priority 2014, dated 2015) can be followed below.

The target in one test is IRAK4 (Homo sapiens (Human), UniProt Q9NWZ3). As to the kind of experiment: IRAK4 Inhibition Assay. In kind it is biochemical. Conditions: IRAK4 Inhibition Assay, ATP 500 μM, read-out: IRAK4 IC50. The method in brief: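 Mobility-shift readout: fluorescent substrate and phosphoproduct resolved electrophoretically on Caliper LabChip 3000 after EDTA quench (35 mM). Enzyme reaction of IRAK4, substrates and test compound ran 60 min at room temperature.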
Chain of IRAK4 (Q9NWZ3 whole entry, species assumed): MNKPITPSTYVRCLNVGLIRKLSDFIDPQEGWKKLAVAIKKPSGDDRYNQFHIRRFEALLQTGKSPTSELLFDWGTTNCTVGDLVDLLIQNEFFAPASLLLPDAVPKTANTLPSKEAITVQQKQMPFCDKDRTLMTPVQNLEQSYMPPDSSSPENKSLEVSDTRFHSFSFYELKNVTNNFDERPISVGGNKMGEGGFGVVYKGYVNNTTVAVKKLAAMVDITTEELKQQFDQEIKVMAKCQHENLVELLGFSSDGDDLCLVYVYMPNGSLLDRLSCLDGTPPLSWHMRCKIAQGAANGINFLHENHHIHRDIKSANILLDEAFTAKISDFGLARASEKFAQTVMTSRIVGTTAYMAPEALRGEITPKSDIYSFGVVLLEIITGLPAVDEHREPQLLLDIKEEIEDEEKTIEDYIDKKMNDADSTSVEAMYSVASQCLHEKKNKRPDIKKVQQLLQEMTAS

For test [1], the system named is TLR2 induced IL-6 in peripheral blood mononuclear cells (PBMCs). As to the kind of experiment: PBMC TLR2 Induced IL-6 Assay. The class given is cell-based, human. The settings on record: for EC50: read-out: Cell EC50; for IC50: read-out: Cell IC50. The method in brief: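 Lipoteichoic acid at 10 µg/ml served as TLR2 stimulus for 5 hours, following a 30-minute compound pretreatment at 37° C. Cells were Ficoll-isolated human PBMCs, 250000 cells/well, cultured in RPMI plus 10% heat-inactivated FCS.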

[2] abbreviates: Homo sapiens, PBMC, PBMC TLR2 Induced IL-6 Assay, lipoteichoic acid stimulation, IL-6 by ELISA.

Where a name gives a salt, the structure may show the parent alone. Read-outs that look alike come from different tables or passages of the source.

Usually IC50 stands for the concentration at which inhibition is half-maximal. Usually EC50 stands for the concentration that produces a half-maximal response. As to `CC(C)Nc1cc(-n2ccc3cnc(NCC(C)(C)O)nc32)ncc1C(=O)NC[C@@H](F)C(C)(C)O` [Example 187, (R)—N-(2-Fluoro-3-hydroxy-3-methylbutyl)-6-(2-((2-hydroxy-2-methylpropyl)amino)-7H-pyrrolo[2,3-d]pyrimidin-7-yl)-4-(isopropylamino)nicotinamide], the IC50 at IRAK4 came to 1.9 nM. In addition, the EC50 in test [1] (setting [2]) was found to be 86 nM.

As to `CC(C)Nc1cc(-n2ccc3cnc(NCCO)nc32)ncc1C(=O)NC[C@@H](F)C(C)(C)O` [Example 188, (R)—N-(2-fluoro-3-hydroxy-3-methylbutyl)-6-(2-((2-hydroxyethyl)amino)-7H-pyrrolo[2,3-d]pyrimidin-7-yl)-4-(isopropylamino)nicotinamide], the IC50 on IRAK4 was 1.7 nM. Further, in test [1] (setting [2]), the EC50 was 57 nM.

With `CC(C)Nc1cc(-n2ccc3cnc(N4CC[C@H](O)C4)nc32)ncc1C(=O)NC[C@@H](F)C(C)(C)O` [Example 189, N—((R)-2-fluoro-3-hydroxy-3-methylbutyl)-6-(2-((S)-3-hydroxypyrrolidin-1-yl)-7H-pyrrolo[2,3-d]pyrimidin-7-yl)-4-(isopropylamino)nicotinamide], the IC50 on IRAK4 was found to be 4.8 nM. Further, in test [1] (setting [2]), the EC50 worked out at 75 nM.

Regarding `CC(C)Nc1cc(-n2ccc3cnc(N4CC[C@@H](O)C4)nc32)ncc1C(=O)NC[C@@H](F)C(C)(C)O` [Example 190, N—((R)-2-fluoro-3-hydroxy-3-methylbutyl)-6-(2-((R)-3-hydroxypyrrolidin-1-yl)-7H-pyrrolo[2,3-d]pyrimidin-7-yl)-4-(isopropylamino)nicotinamide], the IC50 at IRAK4 came to 4.7 nM. Further, the EC50 in test [1] (setting [2]) was 120 nM.

Regarding `CC(C)Nc1cc(-n2ncc3cc(C#N)cnc32)ncc1C(=O)NC[C@@H](F)C(C)(C)OP(=O)(O)O` [Example 191, (R)-4-(6-(5-Cyano-1H-pyrazolo[3,4-b]pyridin-1-yl)-4-(isopropylamino)nicotinamido)-3-fluoro-2-methylbutan-2-yl dihydrogen phosphate], the IC50 at IRAK4 stood at 14.7 nM. The EC50 in test [1] (setting [2]) was found to be 10000 nM.

For `CC(C)Nc1cc(-n2ncc3cc(C#N)cnc32)ncc1C(=O)NC[C@@H](F)C(C)(C)O` [Example 192, (R)-6-(5-Cyano-1H-pyrazolo[3,4-b]pyridin-1-yl)-N-(2-fluoro-3-hydroxy-3-methylbutyl)-4-(isopropylamino)nicotinamide, hydrochloride], the IC50 at IRAK4 (hydrochloride) amounted to 2.6 nM. Also, the EC50 in test [1] (PBMC TLR2 Induced IL-6 Assay, lipoteichoic acid stimulation, IL-6 by ELISA, hydrochloride) turned out to be 120 nM.

Take `CC[C@@H](C)Nc1cc(-n2ncc3cc(C#N)cnc32)ncc1C(=O)NCCC(C)(C)O` [Example 193, (R)-4-(sec-Butylamino)-6-(5-cyano-1H-pyrazolo[3,4-b]pyridin-1-yl)-N-(3-hydroxy-3-methylbutyl)nicotinamide]: the IC50 at IRAK4 came out at 3.4 nM; in test [1] (setting [2]) it was 287 nM.

Take `COc1cnc2c(cnn2-c2cc(NC(C)C)c(C(=O)NC[C@@H](F)C(C)(C)O)cn2)c1` [Example 195]: the IC50 at IRAK4 came out at 19.4 nM. Besides, in test [1] (setting [2]), the EC50 amounted to 340 nM and the IC50 was 647 nM.

On to `CC(C)Nc1cc(-n2ncc3cc(C#N)cnc32)ncc1C(=O)NC[C@H](F)C(C)(C)O` [Example 196], for which the IC50 on IRAK4 amounted to 10.4 nM. In addition, in test [1] (setting [2]), the EC50 came to 304 nM and the IC50 came out at 328 nM.

For `CC(C)NC(=O)[C@H](F)CNC(=O)c1cnc(-n2ncc3cc(C#N)cnc32)cc1NC(C)C` [Example 197], the IC50 on IRAK4 is 8.1 nM. The EC50 in test [1] (setting [2]) is 297 nM.

`COC1CCC(NC(=O)c2cnc(-n3ncc4cc(C#N)cnc43)cc2NC(C)C)CC1` (stereo not drawn) [Example 198]: the IC50 on IRAK4 was found to be 3.4 nM. The EC50 in test [1] (setting [2]) stood at 134 nM.

Turning to `CCCCNC(=O)c1cnc(-n2ncc3cc(C#N)cnc32)cc1NC(C)C` [Example 199], on IRAK4, the IC50 was determined as 6.3 nM. Further, the EC50 in test [1] (setting [2]) came out at 281 nM.

Regarding `COC(C)(C)[C@H](F)CNC(=O)c1cnc(-n2ncc3cc(C#N)cnc32)cc1NC(C)C` [Example 200], the IC50 on IRAK4 came out at 2.8 nM. Besides, the EC50 in test [1] (setting [2]) amounted to 79 nM.

As for `CC(C)Nc1cc(-n2ncc3cc(C#N)cnc32)ncc1C(=O)NCCCN1CCOCC1` [Example 201], the IC50 on IRAK4 is 16.3 nM. The EC50 in test [1] (setting [2]) came out at 583 nM.

On to `CC(C)Nc1cc(-n2ncc3cc(C#N)cnc32)ncc1C(=O)NCCN1CCOCC1` [Example 204], for which the IC50 on IRAK4 was 4.9 nM. In addition, in test [1] (setting [2]), the half-maximal effective concentration (EC50) was 174 nM.

For the compound `CC(C)Nc1cc(-n2ncc3cc(C#N)cnc32)ncc1C(=O)NCC(=O)N1CCOCC1` [Example 206], the IC50 at IRAK4 came out at 14.4 nM. For the same compound, the EC50 in test [1] (setting [2]) stood at 86 nM.

As for `COC(=O)CCNC(=O)c1cnc(-n2ncc3cc(C#N)cnc32)cc1NC(C)C` [Example 207], on IRAK4, the IC50 came to 10.3 nM. Moreover, in test [1] (setting [2]), the EC50 amounted to 227 nM.

As for `CCOP(=O)(CCNC(=O)c1cnc(-n2ncc3cc(C#N)cnc32)cc1NC(C)C)OCC` [Example 208], the IC50 on IRAK4 amounted to 16 nM. For the same compound, the EC50 in test [1] (Homo sapiens, PBMC) amounted to 238 nM.

On to `[2H]C([2H])([2H])OC(C)(C)[C@H](F)CNC(=O)c1cnc(-n2ncc3cc(C#N)cnc32)cc1NC(C)C` [Example 210], for which the concentration for half-maximal inhibition (IC50) at IRAK4 amounted to 3.1 nM. In addition, the EC50 in test [1] (setting [2]) came to 206 nM.

For the compound `CC(C)Nc1cc(-n2ncc3cc(C#N)cnc32)ncc1C(=O)NCCN1CCS(=O)(=O)CC1` [Example 211], at IRAK4, the IC50 worked out at 8.1 nM. For the same compound, the EC50 in test [1] (setting [2]) stood at 87 nM.

Turning to `CCNC(=O)CCNC(=O)c1cnc(-n2ncc3cc(C#N)cnc32)cc1NC(C)C` [Example 212], at IRAK4, the IC50 was 12.4 nM. Also, in test [1] (setting [2]), the EC50 was 192 nM.

For the compound `CC(C)Nc1cc(-n2ncc3cc(C#N)cnc32)ncc1C(=O)NCCCc1ncn[nH]1` [Example 213], the IC50 on IRAK4 stood at 14.8 nM. For the same compound, in test [1] (setting [2]), the EC50 stood at 428 nM.

Take `Cc1cnc2c(cnn2-c2cc(NC(C)C)c(C(=O)N[C@H]3CC[C@H](C(C)(C)O)CC3)cn2)c1` [Example 214]: the IC50 at IRAK4 came to 13.6 nM. Moreover, the EC50 in test [1] (setting [2]) was found to be 209 nM.

As for `CCOC(C)(C)[C@H](F)CNC(=O)c1cnc(-n2ncc3cc(C#N)cnc32)cc1NC(C)C` [Example 215], at IRAK4, the IC50 is 3.7 nM. Further, in test [1] (setting [2]), the EC50 is 144 nM.

For the compound `CC(C)Nc1cc(-n2ncc3cc(C#N)cnc32)ncc1C(=O)Nc1ccc(N2CCOCC2)nc1` [Example 216], the IC50 at IRAK4 was 4.5 nM. For the same compound, in test [1] (setting [2]), the EC50 came out at 253 nM.

Take `CC(C)Nc1cc(-n2ncc3cc(C#N)cnc32)ncc1C(=O)Nc1ccc(O)cn1` [Example 217]: the IC50 at IRAK4 is 15.5 nM. The EC50 in test [1] (setting [2]) turned out to be 503 nM.

Take `CNC(=O)C[C@H]1CC[C@H](NC(=O)c2cnc(-n3ncc4cc(C#N)cnc43)cc2NC(C)C)CC1` [Example 218]: the IC50 on IRAK4 was 19.5 nM. The EC50 in test [1] (setting [2]) is 111 nM.

Consider `CC(C)Nc1cc(-n2ncc3cc(C#N)cnc32)ncc1C(=O)NCCNS(C)(=O)=O` [Example 219], for which, at IRAK4, the IC50 is 14.9 nM. Besides, in test [1] (setting [2]), the EC50 was determined as 502 nM and the IC50 was 678 nM.

Turning to `CC(C)Nc1cc(-n2ncc3cc(C#N)cnc32)ncc1C(=O)NCCC1CCCCO1` (stereo not drawn) [Example 220], at IRAK4, the IC50 was 6.5 nM. Further, in test [1] (setting [2]), the EC50 was found to be 168 nM.

For the compound `CC(C)Nc1cc(-n2ncc3cc(C#N)cnc32)ncc1C(=O)Nc1ccc(N2CCOCC2)cn1` [Example 221], on IRAK4, the IC50 stood at 8.4 nM. For the same compound, the EC50 in test [1] (setting [2]) was 230 nM.

In the case of `CC(C)Nc1cc(-n2ncc3cc(C#N)cnc32)ncc1C(=O)Nc1ccc(N2CCOCC2)cc1` [Example 222], at IRAK4, the IC50 is 5.1 nM. Also, the EC50 in test [1] (setting [2]) came out at 305 nM.

In the case of `CC(C)Nc1cc(-n2ncc3cc(C#N)cnc32)ncc1C(=O)Nc1cc2cc[nH]c2cn1` [Example 223], the IC50 on IRAK4 was determined as 4 nM; in test [1] (setting [2]), 178 nM.

For the compound `CC(C)Nc1cc(-n2ncc3cc(C#N)cnc32)ncc1C(=O)Nc1cnc(N2CCOCC2)nc1` [Example 224], at IRAK4, the IC50 turned out to be 6.7 nM. Besides, in test [1] (setting [2]), the concentration for a half-maximal effect (EC50) stood at 303 nM and the IC50 turned out to be 159 nM.

Consider `CC(C)Nc1cc(-n2ncc3cc(C#N)cnc32)ncc1C(=O)Nc1ccc(OCCN(C)C)cn1` [Example 225], for which the IC50 on IRAK4 is 9.2 nM. The EC50 in test [1] (setting [2]) was 98 nM.

In the case of `CC(C)Nc1cc(-n2ncc3cc(C#N)cnc32)ncc1C(=O)Nc1ccc(CN2CCOCC2)cc1` [Example 226], the 50% inhibitory concentration (IC50) on IRAK4 turned out to be 6.8 nM. Further, the EC50 in test [1] (setting [2]) is 248 nM.

As for `CC(C)Nc1cc(-n2ncc3cc(C#N)cnc32)ncc1C(=O)Nc1ccc(N2CCNCC2)nc1` [Example 227], the IC50 at IRAK4 stood at 5.3 nM. The EC50 in test [1] (setting [2]) was 55 nM.

As for `CC(C)Nc1cc(-n2ncc3cc(C#N)cnc32)ncc1C(=O)Nc1ccc(N(C)C)nc1` [Example 228], at IRAK4, the IC50 came out at 6.9 nM. Further, the EC50 in test [1] (setting [2]) turned out to be 163 nM.

As for `CNC(=O)[C@H](F)CNC(=O)c1cnc(-n2ncc3cc(C#N)cnc32)cc1NC(C)C` [Example 229], on IRAK4, the IC50 is 9.6 nM. Moreover, in test [1] (setting [2]), the EC50 stood at 137 nM and the IC50 was determined as 1420 nM.

Turning to `CC(C)Nc1cc(-n2ncc3cc(C#N)cnc32)ncc1C(=O)NC[C@@H](F)C(=O)N[C@@H](C)CO` [Example 230], the IC50 came out at 13.4 nM at IRAK4 and 459 nM in test [1] (setting [2]). In test [1] (setting [2]), the EC50 turned out to be 410 nM.

As to `CC(C)Nc1cc(-n2ncc3cc(C(F)F)cnc32)ncc1C(=O)NC[C@@H](F)C(C)(C)O` [Example 231], the IC50 on IRAK4 came out at 14.2 nM. For the same compound, in test [1] (setting [2]), the 50% effective concentration (EC50) was 237 nM and the IC50 stood at 544 nM.

As to `CC(C)(CO)Nc1cc(-n2ncc3cc(C#N)cnc32)ncc1C(=O)NC[C@@H](F)C(C)(C)O` [Example 234], the IC50 at IRAK4 is 4.7 nM. In test [1] (setting [2]), the EC50 turned out to be 128 nM and the IC50 amounted to 1360 nM.
